Data taken from ChEMBL document CHEMBL5523716, “Discovery of novel EGFR-PROTACs capable of degradation of multiple EGFR-mutated proteins” (Eur J Med Chem, 2024).
Active and inactive are the calls of the source. No cut-off for these calls is given here.

Columns and labels:
[1] = Metabolic stability in rat liver microsomes assessed as intrinsic clearance at 1 uM incubated upto 60 mins in presence of NADPH by LC-MS/MS analysis; format: ADME, Microsome; details: read-out: CLH
[2] = Metabolic stability in rat liver microsomes assessed as elimination rate constant at 1 uM incubated upto 60 mins in presence of NADPH by LC-MS/MS analysis; format: ADME, Microsome
[3] = AUC (0 to t) in SPF ICR mouse at 2 mg/kg,iv measured upto 24 hrs by LC-MS/MS analysis; format: ADME, organism-based; details: in vivo
[4] = tested on: von Hippel-Lindau disease tumor suppressor/Epidermal growth factor receptor (Homo sapiens), P00533+P40337 [UNDEFINED MUTATION]; experiment: PROTAC activity at VHL/EGFR Del19 mutant in human HCC827 cells assessed as downregulation of EGFR phosphorylation incubated for 72 hrs by Western blot analysis; format: cell-based
[5] = target: von Hippel-Lindau disease tumor suppressor/Epidermal growth factor receptor (Homo sapiens, UniProt P00533+P40337); experiment: PROTAC activity at VHL/EGFR Del19 mutant in human HCC827 cells assessed as induction of EGFR degradation incubated for 72 hrs by Western blot analysis; format: cell-based
[6] = MRT (0 to infinity) in SPF ICR mouse at 5 mg/kg,ip measured upto 24 hrs by LC-MS/MS analysis; format: ADME, organism-based; details: in vivo
[7] = Antiproliferative activity against human H1975-TM cells harboring EGFR L858R/T790M/C797S mutant assessed as inhibition of cell growth incubated for 48 to 72 hrs by CCK-8 assay; format: functional, cell-based
[8] = Metabolic stability in mouse liver microsomes assessed as intrinsic clearance at 1 uM incubated upto 60 mins in presence of NADPH by LC-MS/MS analysis; format: ADME, Microsome; details: read-out: CLH
[9] = tested on: von Hippel-Lindau disease tumor suppressor/Epidermal growth factor receptor (Homo sapiens), P00533+P40337 [L858R,T790M]; experiment: PROTAC activity at VHL/EGFR L858R/T790M mutant in human NCI-H1975 cells assessed as induction of EGFR degradation at 2 uM by Western blot analysis; format: cell-based; details: TDE = time-dependent effect
[10] = Metabolic stability in mouse liver microsomes assessed as elimination rate constant at 1 uM incubated upto 60 mins in presence of NADPH by LC-MS/MS analysis; format: ADME, Microsome
[11] = target: von Hippel-Lindau disease tumor suppressor/Epidermal growth factor receptor (Homo sapiens, UniProt P00533+P40337, T790M/L858R); experiment: PROTAC activity at VHL/EGFR L858R/T790M mutant in human NCI-H1975 cells assessed as induction of EGFR degradation incubated for 72 hrs by Western blot analysis; format: cell-based
[12] = Antitumor activity against human H1975-TM cells xenografted in BALB/c mouse assessed as tumor growth inhibition at 10 mg/kg,ip once daily for 14 days relative to control; format: functional; details: 336 h, time 14 day, read-out: TGI
[13] = Tmax in SPF ICR mouse at 2 mg/kg,iv measured upto 24 hrs by LC-MS/MS analysis; format: ADME, organism-based; details: in vivo
[14] = tested on: von Hippel-Lindau disease tumor suppressor/Epidermal growth factor receptor (Homo sapiens), P00533+P40337 [L858R,T790M]; experiment: PROTAC activity at VHL/EGFR L858R/T790M mutant in human NCI-H1975 cells assessed as induction of EGFR degradation at 2 uM incubated for 8 hr by Western blot analysis; format: cell-based
[15] = tested on: von Hippel-Lindau disease tumor suppressor/Epidermal growth factor receptor (Homo sapiens), P00533+P40337 [UNDEFINED MUTATION]; experiment: PROTAC activity at VHL/EGFR Del19 mutant in human HCC827 cells assessed as induction of EGFR degradation at 100 nM by Western blot analysis; format: cell-based; details: TDE = time-dependent effect
[16] = target: von Hippel-Lindau disease tumor suppressor/Epidermal growth factor receptor (Homo sapiens, UniProt P00533+P40337, T790M/C797S/L858R); experiment: PROTAC activity at VHL/EGFR L858R/T790M/C797S mutant in human H1975-TM cells assessed as induction of EGFR degradation incubated for 48 hrs by Western blot analysis; format: cell-based
[17] = AUC (0 to infinity) in SPF ICR mouse at 5 mg/kg,ip measured upto 24 hrs by LC-MS/MS analysis; format: ADME, organism-based; details: in vivo
[18] = tested on: von Hippel-Lindau disease tumor suppressor/Epidermal growth factor receptor (Homo sapiens), P00533+P40337 [L858R,T790M,C797S]; experiment: PROTAC activity at VHL/EGFR L858R/T790M/C797S mutant in human H1975-TM cells assessed as downregulation of AKT phosphorylation incubated for 48 hrs by Western blot analysis; format: cell-based
[19] = tested on: HCC827; experiment: Antiproliferative activity against human HCC827 cells harboring EGFR Del19 mutant assessed as inhibition of cell growth incubated for 48 to 72 hrs by CCK-8 assay; format: functional, cell-based
[20] = Metabolic stability in dog liver microsomes assessed as elimination rate constant at 1 uM incubated upto 60 mins in presence of NADPH by LC-MS/MS analysis; format: ADME, Canis lupus familiaris, Microsome
[21] = target: Voltage-gated inwardly rectifying potassium channel KCNH2 (Homo sapiens, UniProt Q12809); experiment: Inhibition of hERG expressed in CHO cells at 0.3 to 30 uM incubated for 24 to 48 hrs by voltage clamp electrophysiology; format: toxicity, cell-based; details: dose lower 0.3 µM, time lower 24 hrs, dose upper 30 µM, time upper 48 hrs
Chain of Voltage-gated inwardly rectifying potassium channel KCNH2 (Q12809 whole entry): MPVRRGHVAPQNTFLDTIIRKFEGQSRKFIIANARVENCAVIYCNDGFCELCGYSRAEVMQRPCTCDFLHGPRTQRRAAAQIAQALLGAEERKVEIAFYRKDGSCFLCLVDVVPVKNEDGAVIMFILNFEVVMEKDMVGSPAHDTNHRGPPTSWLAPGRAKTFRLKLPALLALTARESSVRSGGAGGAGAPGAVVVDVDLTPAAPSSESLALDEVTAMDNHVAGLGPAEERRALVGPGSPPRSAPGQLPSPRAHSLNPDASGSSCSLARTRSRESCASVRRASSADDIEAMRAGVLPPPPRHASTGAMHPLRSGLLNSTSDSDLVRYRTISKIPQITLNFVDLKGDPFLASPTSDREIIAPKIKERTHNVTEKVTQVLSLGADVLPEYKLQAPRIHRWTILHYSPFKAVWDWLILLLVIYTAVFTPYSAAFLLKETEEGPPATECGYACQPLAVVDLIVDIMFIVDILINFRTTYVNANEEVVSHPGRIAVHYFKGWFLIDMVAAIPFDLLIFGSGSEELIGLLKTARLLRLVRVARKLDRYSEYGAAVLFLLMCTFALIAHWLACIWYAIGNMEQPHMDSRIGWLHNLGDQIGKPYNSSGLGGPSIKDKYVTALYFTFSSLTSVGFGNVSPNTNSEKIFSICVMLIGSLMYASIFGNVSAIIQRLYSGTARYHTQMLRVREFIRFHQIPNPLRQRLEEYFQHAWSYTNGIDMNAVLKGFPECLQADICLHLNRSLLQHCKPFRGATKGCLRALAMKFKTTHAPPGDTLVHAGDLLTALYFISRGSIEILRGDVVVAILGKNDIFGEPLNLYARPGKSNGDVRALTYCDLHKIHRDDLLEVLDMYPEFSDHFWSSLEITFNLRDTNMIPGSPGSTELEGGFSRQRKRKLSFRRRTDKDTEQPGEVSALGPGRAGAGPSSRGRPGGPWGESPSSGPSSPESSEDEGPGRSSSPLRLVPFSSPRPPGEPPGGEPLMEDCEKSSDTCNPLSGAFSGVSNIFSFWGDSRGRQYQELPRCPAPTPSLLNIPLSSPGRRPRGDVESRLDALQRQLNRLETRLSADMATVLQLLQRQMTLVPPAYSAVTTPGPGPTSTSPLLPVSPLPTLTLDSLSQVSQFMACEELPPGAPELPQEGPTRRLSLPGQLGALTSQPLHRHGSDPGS

[22] = Cmax in SPF ICR mouse at 5 mg/kg,ip measured upto 24 hrs by LC-MS/MS analysis; format: ADME, organism-based; details: in vivo
[23] = tested on: von Hippel-Lindau disease tumor suppressor/Epidermal growth factor receptor (Homo sapiens), P00533+P40337 [L858R,T790M]; experiment: PROTAC activity at VHL/EGFR L858R/T790M mutant in human NCI-H1975 cells assessed as maximal EGFR degradation at 0.07 to 5 uM incubated for 72 hrs by Western blot analysis relative to control; format: cell-based; details: dose 0.07-5 µM
[24] = Metabolic stability in human liver microsomes assessed as half-life at 1 uM incubated upto 60 mins in presence of NADPH by LC-MS/MS analysis; format: ADME, Microsome
[25] = tested on: H1975-TM; experiment: Antitumor activity against human H1975-TM cells xenografted in BALB/c mouse assessed as increase in EGFR degradation in tumor at 5 to 20 mg/kg,ip once daily for 14 days by Western blot analysis; format: functional, organism-based; details: dose 5-20 mg/kg, time 14.0 day
[26] = Metabolic stability in human liver microsomes assessed as elimination rate constant at 1 uM incubated upto 60 mins in presence of NADPH by LC-MS/MS analysis; format: ADME, Microsome
[27] = tested on: H1975-TM; experiment: Antitumor activity against human H1975-TM cells xenografted in BALB/c mouse assessed as downregulation of AKT phosphorylation in tumor at 5 to 20 mg/kg,ip once daily for 14 days by Western blot analysis; format: functional, organism-based; details: dose 5-20 mg/kg, time 14.0 day
[28] = tested on: A-431; experiment: Antiproliferative activity against human A-431 cells harboring EGFR wild type assessed as inhibition of cell growth incubated for 48 to 72 hrs by CCK-8 assay; format: functional, cell-based
[29] = MRT (0 to t) in SPF ICR mouse at 5 mg/kg,ip measured upto 24 hrs by LC-MS/MS analysis; format: ADME, organism-based; details: in vivo
[30] = tested on: von Hippel-Lindau disease tumor suppressor/Epidermal growth factor receptor (Homo sapiens), P00533+P40337 [UNDEFINED MUTATION]; experiment: PROTAC activity at VHL/EGFR Del19 mutant in human HCC827 cells assessed as downregulation of ERK phosphorylation incubated for 72 hrs by Western blot analysis; format: cell-based
[31] = Metabolic stability in monkey liver microsomes assessed as intrinsic clearance at 1 uM incubated upto 60 mins in presence of NADPH by LC-MS/MS analysis; format: ADME, Macaca mulatta, Microsome; details: rhesus monkey, read-out: CLH

Structure (SMILES): CCN(CC)C/C=C/C(=O)Nc1cc2c(Nc3ccc(F)c(Cl)c3)ncnc2cc1OCc1cn(CCCCCCCC(=O)N[C@H](C(=O)N2C[C@H](O)C[C@H]2C(=O)N[C@H](C)c2ccc(-c3scnc3C)cc2)C(C)(C)C)nn1
- microsomal CLint at 1 µM [1]: 7.4 µL/min/mg
- k el at 1 h, 1 µM [2]: 6.67e-05 s⁻¹
- AUC(0-t) at 24 h [3]: 2350 ng·h/mL
- Activity [4]: Dose-Dependent Effect
- DC50 [5]: 17.9 nM
- MRT inf [6]: 2.89 h
- IC50 [7]: 3240 nM
- microsomal CLint at 1 µM [8]: 11.8 µL/min/mg
- Activity [9]: Tde
- k el at 1 h, 1 µM [10]: 0.0001 s⁻¹
- DC50 [11]: 250 nM
- inhibition in vivo at 10 mg/kg [12]: 34%
- Tmax [13]: 4.8 min
- Activity [14]: 83%
- Activity [15]: Tde
- DC50 [16]: 630 nM
- AUC(0-inf) [17]: 2830 ng·h/mL
- Activity [18]: Dose-Dependent Effect
- IC50 [19]: 9 nM
- k el at 1 h, 1 µM [20]: 0.00015 s⁻¹
- inhibition (INH) [21]: Not Active
- Cmax [22]: 656 ng/mL
- Emax [23]: 94%
- half-life at 1 µM [24]: 0.275 h
- Activity [25]: Active
- k el at 1 h, 1 µM [26]: 0.0007 s⁻¹
- Activity [27]: Active
- IC50 [28]: > 20000 nM
- MRT last at 24 h [29]: 2.86 h
- Activity [30]: Dose-Dependent Effect
- microsomal CLint at 1 µM [31]: 36.6 µL/min/mg
